PMC2929395 (Chemistry & biology, 2010)
“Also recorded” adds a separate entry of the source. Counter-ions that a name gives are not always drawn.

How the values were obtained:
PanK3 [1] = target: T1, PanK3 (Homo sapiens, UniProt Q9H999); assay: PanK3 high-throughput screen, two-step luminescence; assay type: biochemical
PanK3 [2] = target: T1, PanK3; assay: PanK3 radiochemical; assay type: biochemical; settings: for % Activation RA: % of maximal activation of PanK3 with respect to the DMSO control; for % Activation RA / PanK3 inhibition (in words): radioactive assay; for EC50 (µM), RA: radiochemical PanK3 assay; for Km: read-out: KM for PanK3, wild-type PanK3, substrate; for PanK3 inhibition by steroids: radiochemical assay, 100 µM compound; for PanK3 inhibition (in words): increasing concentrations of compound; for Reversal of / competition with acetyl-CoA inhibition of PanK3: in the presence of acetyl-CoA, data not shown
PanK3(S195V) = target: T2, PanK3(S195V) (Homo sapiens, UniProt Q9H999, S195V); assay: PanK3; assay type: biochemical; settings: for Km: read-out: KM for PanK3(S195V), substrate; for Inhibition of PanK3(S195V): radioactive assay, 800 ng PanK3(S195V)
T2 sequence (Q9H999 1-370 S195V): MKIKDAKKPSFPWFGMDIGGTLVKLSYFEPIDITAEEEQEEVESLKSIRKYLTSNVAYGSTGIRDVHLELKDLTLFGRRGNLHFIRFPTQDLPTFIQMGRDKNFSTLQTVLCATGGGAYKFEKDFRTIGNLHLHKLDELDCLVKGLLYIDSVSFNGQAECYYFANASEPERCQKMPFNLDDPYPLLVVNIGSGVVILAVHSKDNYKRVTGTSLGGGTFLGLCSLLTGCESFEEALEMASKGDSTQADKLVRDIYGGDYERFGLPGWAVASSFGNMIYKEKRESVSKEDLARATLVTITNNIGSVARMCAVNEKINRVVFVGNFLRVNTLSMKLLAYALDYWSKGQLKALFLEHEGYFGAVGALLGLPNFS

S. aureus PanK (SaPanK) = S. aureus PanK (SaPanK) (Staphylococcus aureus, UniProt Q2FWC7); assay: SaPanK radiochemical assay; assay type: biochemical; settings: radioactive assay, 10 ng SaPanK
Chain of S. aureus PanK (SaPanK) (Q2FWC7 whole entry): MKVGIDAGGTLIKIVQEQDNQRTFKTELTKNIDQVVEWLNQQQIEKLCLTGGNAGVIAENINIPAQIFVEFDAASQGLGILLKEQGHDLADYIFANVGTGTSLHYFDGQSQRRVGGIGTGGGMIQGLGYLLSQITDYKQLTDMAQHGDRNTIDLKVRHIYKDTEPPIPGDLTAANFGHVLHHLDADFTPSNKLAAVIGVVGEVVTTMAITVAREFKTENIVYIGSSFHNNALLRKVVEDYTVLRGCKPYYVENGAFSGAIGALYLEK

HepG2/C3A cells = assay: CoA biosynthesis, [3H]pantothenate incorporation into CoA in HepG2/C3A cells; assay type: cell-based, human; settings: 24 h labeling, relative to DMSO control
PanK1β = target: T3, PanK1β (Homo sapiens, UniProt Q8TE04); assay: Isoform selectivity, purified PanK1β; assay type: biochemical; settings: compared to PanK3
T3 sequence (Q8TE04 1-373 isoform Q8TE04-2): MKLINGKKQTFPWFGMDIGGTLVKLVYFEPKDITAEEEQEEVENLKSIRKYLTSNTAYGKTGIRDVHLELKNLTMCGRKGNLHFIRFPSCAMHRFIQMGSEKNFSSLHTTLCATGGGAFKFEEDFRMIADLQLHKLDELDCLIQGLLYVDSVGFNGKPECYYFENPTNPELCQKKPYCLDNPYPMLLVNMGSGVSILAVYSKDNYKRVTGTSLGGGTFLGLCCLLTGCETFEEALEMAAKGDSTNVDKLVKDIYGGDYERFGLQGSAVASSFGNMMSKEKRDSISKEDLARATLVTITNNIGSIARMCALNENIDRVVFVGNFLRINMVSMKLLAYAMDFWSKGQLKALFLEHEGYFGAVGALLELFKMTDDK

PanK2 = target: T4, PanK2 (Homo sapiens, UniProt Q9BZ23); assay: Isoform selectivity, purified PanK2; assay type: biochemical; settings: compared to PanK3
T4 sequence (Q9BZ23 141-570 limits assumed): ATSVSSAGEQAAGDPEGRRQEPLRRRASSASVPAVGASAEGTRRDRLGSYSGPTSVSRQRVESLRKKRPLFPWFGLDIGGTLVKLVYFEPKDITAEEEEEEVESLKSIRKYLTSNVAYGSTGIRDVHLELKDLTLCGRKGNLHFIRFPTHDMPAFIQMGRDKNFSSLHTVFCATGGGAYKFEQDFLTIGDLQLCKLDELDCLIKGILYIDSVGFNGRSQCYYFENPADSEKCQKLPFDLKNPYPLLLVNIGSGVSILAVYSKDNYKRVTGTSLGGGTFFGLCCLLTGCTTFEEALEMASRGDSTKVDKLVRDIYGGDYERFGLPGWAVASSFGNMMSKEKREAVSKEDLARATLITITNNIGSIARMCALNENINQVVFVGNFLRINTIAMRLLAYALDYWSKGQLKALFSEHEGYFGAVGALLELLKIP

[3] = HTS platform, 10-point concentration series in triplicate, rounded to nearest 0.1 µM

T1 sequence (Q9H999 whole entry): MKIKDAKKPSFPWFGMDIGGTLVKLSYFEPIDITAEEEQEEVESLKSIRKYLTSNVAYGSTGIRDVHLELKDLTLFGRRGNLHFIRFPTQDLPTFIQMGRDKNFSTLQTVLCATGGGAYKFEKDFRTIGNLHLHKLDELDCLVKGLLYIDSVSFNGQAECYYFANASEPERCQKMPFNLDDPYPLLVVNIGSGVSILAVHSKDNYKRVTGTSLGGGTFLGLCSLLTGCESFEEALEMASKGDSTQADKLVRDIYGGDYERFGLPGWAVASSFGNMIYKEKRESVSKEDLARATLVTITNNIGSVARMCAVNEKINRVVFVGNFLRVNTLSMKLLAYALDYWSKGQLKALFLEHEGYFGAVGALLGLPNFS

Molecule: N=C(N)SCCc1ccc(CCSC(=N)N)cc1 [1,4-PBIT dihydrobromide]
- IC50 (PanK3 [1]; [3]): 0.4 µM

Molecule: O=C1C=CC(=O)c2ccccc21 [1,4-naphtoquinone]
- % Activation RA (PanK3 [2]): 0%
- EC50 (µM), RA (PanK3 [2]): Inactive

Molecule: CC1(C)[C@@H](O)CC[C@]2(C)[C@H]3C(=O)C=C4[C@H]5C[C@@](C)(C(=O)O)CC[C@]5(C)CC[C@@]4(C)[C@]3(C)CC[C@@H]12 [18α-glycyrrhetinic acid]
- IC50 (PanK3 [1]): 3.6 µM

Molecule: Nc1ncnc2c1ncn2[C@@H]1O[C@H](COP(=O)(O)OP(=O)(O)O)[C@@H](O)[C@H]1O [ADP]
- Kinetic mechanism of PanK3 inhibition with respect to ATP (PanK3 [2]): competitive inhibitor

Molecule: Nc1ncnc2c1ncn2[C@@H]1O[C@H](COP(=O)(O)OP(=O)(O)OP(=O)(O)O)[C@@H](O)[C@H]1O [ATP]
- Km (PanK3 [2]): 311 ± 53 µM
- Km (PanK3(S195V)): 191 ± 27 µM

Molecule: O=C1C(Cl)=C(Cl)C(=O)C(Cl)=C1Cl [Chloranil]
- IC50 (PanK3 [1]): 5.9 µM

Molecule: C[C@]12CC[C@H](OS(=O)(=O)O)CC1=CC[C@@H]1[C@@H]2CC[C@]2(C)C(=O)CC[C@@H]12 [Dehydroisoandrosterone sulfate]
- PanK3 inhibition by steroids (PanK3 [2]): inhibited the enzyme more potently than their non-sulfated versions

Molecule: C[C@]12CC[C@H](O)CC1=CC[C@@H]1[C@@H]2CC[C@]2(C)C(=O)CC[C@@H]12 [Dehydroisoandrosterone]
- PanK3 inhibition by steroids (PanK3 [2]): decreased the enzyme activity

Molecule: CN[C@@H](C)[C@H](O)c1ccccc1 [Ephedrine hydrochloride]
- IC50 (PanK3 [1]): 1.6 µM

Molecule: CC(=O)O[C@H]1C[C@@]2(C)[C@@H](C[C@@H](O)[C@H]3[C@@]4(C)CC[C@@H](O)[C@@H](C)[C@@H]4CC[C@@]32C)/C1=C(\CCC=C(C)C)C(=O)O [Fusidic acid]
- IC50 (PanK3 [1]): 0.1 µM

Molecule: CN(CCOc1ccc(C[C@H](Nc2ccccc2C(=O)c2ccccc2)C(=O)O)cc1)c1ccccn1 [GW1929]
- PanK3 inhibition (in words) (PanK3 [2]): either had no effect or very weak activity

Molecule: O=C1Nc2ccc(I)cc2/C1=C/c1cc(Br)c(O)c(Br)c1 [GW5074]
- IC50 (PanK3 [1]; [3]): 9.2 µM

Molecule: O=C(Nc1ccccc1)c1cc([N+](=O)[O-])ccc1Cl [GW9662]
- PanK3 inhibition (in words) (PanK3 [2]): either had no effect or very weak activity

Molecule: Cc1cc(SCc2sc(-c3ccc(C(F)(F)F)cc3)nc2C)ccc1OCC(=O)O [GW501516]
- IC50 (PanK3 [2]): ~100 µM

Molecule: Cc1cnc(C(=O)NCCc2ccc(S(=O)(=O)NC(=O)NC3CCCCC3)cc2)cn1 [Glipizide]
- IC50 (PanK3 [1]): 5.2 µM
- IC50 (PanK3 [2]): 8.5 µM

Molecule: COc1ccc(Cl)cc1C(=O)NCCc1ccc(S(=O)(=O)NC(=O)NC2CCCCC2)cc1 [Glyburide]
- IC50 (PanK3 [1]): 6.8 µM
- IC50 (PanK3 [2]): 8.5 µM
- Kinetic mechanism of PanK3 inhibition with respect to ATP (PanK3 [2]): uncompetitive
- Inhibition of PanK3(S195V) (PanK3(S195V)): refractory to inhibition
- Inhibition of SaPanK (S. aureus PanK (SaPanK)): refractory; also recorded: not inhibited
- Effect on CoA biosynthesis (pantothenate incorporation into CoA) (HepG2/C3A cells): inhibited cellular CoA biosynthesis to a lesser extent than MCC-555
- Effect on PanK1β activity (PanK1β): activated rather than inhibited
- Effect on PanK2 activity (PanK2): less sensitive to glyburide than PanK3

Molecule: Oc1c(Cl)cc(Cl)c(Cl)c1Cc1c(O)c(Cl)cc(Cl)c1Cl [Hexachlorophene]
- IC50 (PanK3 [1]): 8.8 µM

Molecule: O=C1NC(=O)C(Cc2ccc3cc(OCc4ccccc4F)ccc3c2)S1 (stereo not drawn) [MCC-555]
- Kinetic mechanism of PanK3 inhibition with respect to ATP (PanK3 [2]): uncompetitive
- Inhibition of PanK3(S195V) (PanK3(S195V)): refractory to inhibition
- Inhibition of SaPanK (S. aureus PanK (SaPanK)): refractory; also recorded: not inhibited
- Effect on CoA biosynthesis (pantothenate incorporation into CoA) (HepG2/C3A cells): inhibited pantothenate incorporation into CoA
- Effect on PanK1β activity (PanK1β): inhibited
- Effect on PanK2 activity (PanK2): inhibited

Molecule: CCCCCCCC/C=C\CCCCCCCC(=O)O[C@H](CC(=O)[O-])C[N+](C)(C)C [Oleoyl-carnitine]
- % Activation RA (PanK3 [2]): 140%
- Reversal of / competition with acetyl-CoA inhibition of PanK3 (PanK3 [2]): Competition between acetyl-CoA and oleoyl-carnitine was also observed
- Effect on CoA biosynthesis (pantothenate incorporation into CoA) (HepG2/C3A cells): activators of CoA biosynthesis

Molecule: CCCCCCCC/C=C\CCCCCCCC(=O)NCCO [Oleoylethanolamide]
- EC50 (PanK3 [1]): 7.9 µM
- EC50 (PanK3 [2]): 0.5 µM
- % Activation RA (PanK3 [2]): 120%

Molecule: CCCCCCCCCCCCCCCC(=O)OC(CC(=O)[O-])C[N+](C)(C)C (stereo not drawn) [Palmitoyl-carnitine]
- EC50 (PanK3 [2]): 1.6 µM
- % Activation RA (PanK3 [2]): 120%

Molecule: CCc1ccc(CCOc2ccc(CC3SC(=O)NC3=O)cc2)nc1 (stereo not drawn) [Pioglitazone hydrochloride]
- IC50 (PanK3 [1]): 1 µM

Molecule: CC(=O)[C@H]1CC[C@H]2[C@@H]3CC=C4C[C@@H](O)CC[C@]4(C)[C@H]3CC[C@]12C [Pregnenolone]
- PanK3 inhibition by steroids (PanK3 [2]): weak PanK3 inhibitors

Molecule: O=C(c1cc(O)c(O)c([N+](=O)[O-])c1)c1ccccc1F [Ro 41-0960]
- IC50 (PanK3 [1]; [3]): 3.9 µM

Molecule: CN(CCOc1ccc(CC2SC(=O)NC2=O)cc1)c1ccccn1 (stereo not drawn) [Rosiglitazone]
- Effect on CoA biosynthesis (pantothenate incorporation into CoA) (HepG2/C3A cells): inhibited pantothenate incorporation into CoA

Molecule: CC/C(=C(\c1ccccc1)c1ccc(OCCN(C)C)cc1)c1ccccc1 [Tamoxifen]
- EC50 (PanK3 [1]): 3.4 µM
- EC50 (PanK3 [2]): 4 µM
- % Activation RA (PanK3 [2]): 140%
- Reversal of / competition with acetyl-CoA inhibition of PanK3 (PanK3 [2]): reversed the inhibition of PanK3 by acetyl-CoA
- Effect on CoA biosynthesis (pantothenate incorporation into CoA) (HepG2/C3A cells): most potent activator of CoA biosynthesis in cells
- Effect on PanK1β activity (PanK1β): inhibited
- Effect on PanK2 activity (PanK2): not affected

Molecule: CCCCNC(=O)NS(=O)(=O)c1ccc(C)cc1 [Tolbutamide]
- PanK3 inhibition (in words) (PanK3 [2]): ineffective

Molecule: Cc1c(Cl)cccc1Nc1ccccc1C(=O)O [Tolfenamic acid]
- IC50 (PanK3 [1]): 9.2 µM

Molecule: N#C/C(=C\c1ccc(O)c(O)c1)C(=O)N1CCc2ccccc21 [Tyrphostin AG 528]
- IC50 (PanK3 [1]; [3]): 3 µM

Molecule: C#C[C@]1(O)CC[C@H]2[C@@H]3CCC4=Cc5nc6nc7ccccc7n6cc5C[C@]4(C)[C@H]3CC[C@@]21C [WIN 62577]
- IC50 (PanK3 [1]; [3]): 0.7 µM

Molecule: CC(=O)SCCNC(=O)CCNC(=O)[C@H](O)C(C)(C)COP(=O)(O)OP(=O)(O)OC[C@H]1O[C@@H](n2cnc3c(N)ncnc32)[C@H](O)[C@@H]1OP(=O)(O)O [acetyl-CoA]
- Inhibition of PanK3(S195V) (PanK3(S195V)): refractory to inhibition

Molecule: CC(C)CCC[C@@H](C)[C@H]1CC[C@H]2[C@@H]3CC=C4C[C@@H](O)CC[C@]4(C)[C@H]3CC[C@]12C [cholesterol]
- PanK3 inhibition by steroids (PanK3 [2]): weak PanK3 inhibitors

Molecule: C[C@]12CC[C@@H]3c4ccc(OS(=O)(=O)O)cc4CC[C@H]3[C@@H]1CC[C@@H]2O [estradiol sulfate]
- PanK3 inhibition by steroids (PanK3 [2]): no effect

Molecule: C[C@]12CC[C@@H]3c4ccc(OS(=O)(=O)O)cc4CC[C@H]3[C@@H]1CCC2=O [estrone sulfate]
- PanK3 inhibition by steroids (PanK3 [2]): inhibited the enzyme more potently than their non-sulfated versions

Molecule: NS(=O)(=O)c1cc(C(=O)O)c(NCc2ccco2)cc1Cl [furosemide]
- Activator hit in primary HTS (PanK3 [1]; screened at 12 µM, cut-off >25% activation): did not make the cutoff for an activator of PanK3

Molecule: CC(C)[C@H]1CC[C@H](C(=O)N[C@H](Cc2ccccc2)C(=O)O)CC1 [nateglinide]
- IC50 (PanK3 [2]): > 100 µM

Molecule: CC(C)(CO)[C@@H](O)C(=O)NCCC(=O)NCCS [pantetheine]
- Km (PanK3 [2]): 23 ± 2 µM
- Km (PanK3(S195V)): 59 ± 3 µM

Molecule: CCOc1cc(CC(=O)N[C@@H](CC(C)C)c2ccccc2N2CCCCC2)ccc1C(=O)O [repaglinade]
- IC50 (PanK3 [2]): > 100 µM

Molecule: Phenylmercuric acid
- % Activation RA (PanK3 [2]): 0%
- EC50 (µM), RA (PanK3 [2]): Inactive

Molecule: Psi-Rhodomyrtoxin
- IC50 (PanK3 [1]; [3]): 1.6 µM

Molecule: Tyrphostin AG 808
- IC50 (PanK3 [1]; [3]): 9 µM
